Assay results taken from US11135145B2 (priority 2015, dated 2021).
Values joined by “and” are separate entries in the source; they are usually repeats but may differ in a detail not shown here. Equal values may be shown once. Read-outs that look alike come from different tables or passages of the source.

Tests used:
[1] = test system: matrix metalloproteinase-3 protein (MMP); assay: Cellular MMP-3 protein marker; assay type: cell-based, human; settings: BJ fibroblasts; 5 μM
[2] = test system: glyoxalase 1 antioxidant response element (GLO1-ARE); assay: Stable transfectant GLO1-ARE luciferase reporter HepG2 cell line; assay type: cell-based, human; settings: for GLO1-ARE transcription, normalised to positive control / GLO1-ARE transcription, normalised to positive control (blank = 0%, 10 μM trans-resveratrol = 100%): 6 hours, n = 3, ± SD; for GLO1-ARE transcription, normalised to positive control (blank = 0%, 10 μM trans-resveratrol = 100%): 5 μM single compound; for EC50 / Emax: Homo sapiens; for Emax: 10 μM tRES = 100%
Protocol: (§1) A pGL4.22[luc2CP/puro] reporter vector containing GLO1-ARE was transfected into the HepG2 cell line according to the method set forth in Xue et al. (Biochem. J., 443, 213-222 (2012)). Transfected HepG2 cells were selected with puromycin (1 μg/ml). After culture for 3 weeks, puromycin-resistant cells were screened for luciferase activity after treatment with 4 μM sulforaphane for 6 hours. After validation of positive clones by measuring luciferase activity, the GLO1-ARE stable cell line, R1F3, was expanded in selection media.
(§2) Stable transfectant cell line R1F3 was incubated with and without test compounds for 6 hours in MEM with 10% fetal calf serum and 2 mM glutamine under an atmosphere of 5% CO2 in air, 100% humidity and 37° C. For the reporter assay, 100 μl Cell Culture Lysis Reagent (CCLR, Promega) was added to cell and shaken gently for 30 minutes. The mixture of cell lysate was centrifuged (12,000 g, 5 minutes, 4° C.) and an aliquot (20 μl) of supernatant used in the reporter assay. The luciferase activity was determined using a Luciferase Assay System (Promega). The luciferase response is given in Relative Light Units (RLU).
(§3) These were produced by transfection of a pGL4.22[luc2CP/puro] reporter vector containing NQO1-ARE or GLO1-ARE into the HepG2 cell line. Transfected HepG2 cells were selected with puromycin (1 μg/ml). After culture for 3 weeks, puromycin-resistant cells were screened for luciferase activity after treatment with 4 μM SFN for 6 h. After validation of positive clones by measuring luciferase activity, the stable cell line was expanded in selection media and thereafter used in studies for screening of bioactive compounds and synergism. Stable transfectant cell lines were incubated with and without bioactive compounds and combination of tRES and HESP (0.625-5.0 μM) for 6 h in MEM medium with 10% fetal calf serum and 2 mM glutamine under an atmosphere of 5% CO2 in air, 100% humidity and 37° C. This incubation period was optimum to judge initial rate of increase in transcriptional response in cells treated with compounds without increase in untreated controls. For the reporter assay, 100 μl Cell Culture Lysis Reagent (CCLR, Promega, Southampton, UK) was added to cell and shaken gently for 30 min. The mixture of cell lysate was centrifuged (12,000 g, 5 min, 4° C.) and an aliquot (20 μl) of supernatant used in the reporter assay. The luciferase activity was determined using a Luciferase Assay System (Promega). The luciferase response is given in Relative Light Units (RLU). Data are corrected for blank response and normalised to the highest effect (100%) achieved with 10 μM tRES. Data of normalised responses (blank=0%, 10 μM tRES=100%) for varied bioactive concentrations are fitted by non-linear regression to a dose-response curve, E=Emax×[Bioactive]^n/(EC50^n+[Bioactive]^n), solving for EC50 and n (logistic regression coefficient—also called the Hill coefficient). Nrf2-dependent transcriptional response was verified by siRNA silencing of Nrf2, as described in Xue et al., Biochem J 443, 213-222 (2012).

GSH = assay: Cellular GSH content; assay type: cell-based, human; settings: HAECs, BJ fibroblasts and HepG2 cells; 5 μM single compound
ICAM1 mRNA = assay: ICAM1 mRNA, focused quantitative mRNA profiling; assay type: cell-based, human; settings: HAECs
[3] = test system: NQO-1 antioxidant response element (NQO-1 - ARE); assay: NQO-1-ARE luciferase reporter HepG2 cell line; assay type: cell-based, human; settings: for NQO-1 - ARE transcription, normalised to positive control / NQO-1 - ARE transcription, normalised to positive control (blank = 0%, 10 μM trans-resveratrol = 100%): HepG2, 6 hours, n = 3, ± SD; for NQO-1 - ARE transcription, normalised to positive control (blank = 0%, 10 μM trans-resveratrol = 100%): 5 μM single compound; for NQO-1—ARE transcription in HepG2 cells (in words): 5 μM
Protocol: as §1, with “NQO-1-ARE” for “GLO1-ARE”, “al (Biochem J 443: 213-222,” for “al. (Biochem. J., 443, 213-222”, “line” for “line, R1F3,”
as §2, with “line” for “line R1F3”
as §3

human BJ fibroblasts = assay: Cytotoxicity in human BJ fibroblasts in primary culture; assay type: cell-based; settings: for toxicity (cytotoxicity): individually or with 5 μM combination with primary bioactive compound, concentrations ≤20 μM
Protocol: Primary human aortal endothelial cells (HAEC) were purchased from Lonza (Slough, U.K). HAEC cells were grown in proprietary large vessel endothelial cell basal media supplemented with large vessel endothelial cell growth supplement (containing hydrocortisone, human epidermal growth factor, human fibroblast growth factor with heparin and in 2% (/v/) FBS), 25 μg/ml gentamicin and 50 ng/ml amphotericin B. Human dermal foreskin BJ fibroblasts at cumulative population doubling of 22 were purchased from the European Collection of Animal Cell Cultures (Porton Down, UK). They were cultured in MEM medium with 10% fetal calf serum and 2 mM glutamine under an atmosphere of 5% CO2 in air, 100% humidity and 37° C.

[4] = test system: oxidised glutathione (GSSG); assay: Cellular GSSG content; assay type: cell-based, human; settings: HAECs, BJ fibroblasts and HepG2 cells; 5 μM single compound
[5] = reviewed in Vang et al. and Parhiz et al.; cited from earlier work
[6] = dietary supplement of 150 mg HESP (Takumi et al.); cited from earlier work
NQO-1 mRNA = NQO-1 mRNA by digital mRNA profiling (NanoString nCounter); assay type: cell-based; settings: human dermal foreskin BJ fibroblasts; 5 μM of each compound; 12 hours; n = 3; ± SD
Protocol: (§4) Human dermal foreskin BJ fibroblasts at cumulative population doubling of 22 were purchased from the European Collection of Animal Cell Cultures (Porton Down, UK). They were cultured in Eagle's Minimum Essential Medium (MEM) with 10% fetal calf serum and 2 mM glutamine under an atmosphere of 5% CO2 in air, 100% humidity and 37° C.

HO-1 mRNA = assay: HO-1 (HMOX1) mRNA by digital mRNA profiling (NanoString nCounter); assay type: cell-based; settings: human dermal foreskin BJ fibroblasts; 5 μM of each compound; 12 hours; n = 3; ± SD
Protocol: as §4

[7] = HATFF study: total urinary metabolites of tRES and HESP (LC-MS/MS); assay type: in vivo, human; settings: urine
[8] = patients with type 2 diabetes; 1.7 g metformin per day; cited from earlier work
human hair follicle = settings: WO 2014/095289 Example 3; cited from earlier work
HO-1 gene expression = settings: WO 2014/095289 Example 4; cited from earlier work
NQO-1 gene expression = settings: WO 2014/095289 Example 4; cited from earlier work
[9] = compound alone, HepG2 reporter, 6 h, read-out: EC50 for GLO1-ARE transcriptional response

SMILES: Oc1ccc(/C=C/c2cc(O)cc(O)c2)cc1 [trans-resveratrol]
- cellular MMP-3 protein [1]: decreases
- GLO1-ARE transcription, normalised to positive control ([2]; 0.625 μM trans-resveratrol, 0 μM hesperetin, HepG2): 4.0 ± 2.2%
- GLO1-ARE transcription, normalised to positive control ([2]; 1.25 μM trans-resveratrol, 0 μM hesperetin, HepG2): 19.2 ± 7.6%
- GLO1-ARE transcription, normalised to positive control ([2]; 2.5 μM trans-resveratrol, 0 μM hesperetin, HepG2): 53.8 ± 7.4%
- GLO1-ARE transcription, normalised to positive control (blank = 0%, 10 μM trans-resveratrol = 100%) ([2]; HepG2): 67.6 ± 14.5%
- GLO1-ARE transcription, normalised to positive control ([2]; 10 μM trans-resveratrol, 0 μM hesperetin (positive control = 100%), HepG2): 100.0 ± 2.9%
- predicted increase of GLO1-ARE transcriptional response ([2]; 0.1-1.0 tRES in the presence of 5 μM HESP): 3-79 fold
- increased GLO1-ARE transcriptional response over additive effects ([2]; 0.1-1.0 tRES in the presence of 5 μM HESP, predicted): up to 79%
- Emax of tRES, GLO1-ARE response ([2]; 0.625-10 μM tRES with 5 μM HESP): maintaining the Emax
- EC50 ([2]; HepG2, 0.625-10 μM tRES with 5 μM HESP, read-out: EC50 of tRES for GLO1-ARE transcriptional response): 1.46 ± 0.1 µM
- Emax ([2]; HepG2, compound alone): 100 ± 8.9%
- EC50 [2, 9]: 2.52 ± 0.19 µM
- cellular level of GSH (GSH): did not change
- ICAM1 mRNA (ICAM1 mRNA; 5 μM tRES individually, 48 h post-treatment): tended to increased
- NQO-1 - ARE transcription, normalised to positive control ([3]; 0.625 μM trans-resveratrol, 0 μM hesperetin): 1.9 ± 8.6%
- NQO-1 - ARE transcription, normalised to positive control ([3]; 1.25 μM trans-resveratrol, 0 μM hesperetin): 6.4 ± 2.5%
- NQO-1 - ARE transcription, normalised to positive control ([3]; 2.5 μM trans-resveratrol, 0 μM hesperetin): 15.7 ± 6.7%
- NQO-1 - ARE transcription, normalised to positive control (blank = 0%, 10 μM trans-resveratrol = 100%) [3]: 58.0 ± 2.5% and 56.9 ± 1.7%
- NQO-1 - ARE transcription, normalised to positive control ([3]; 10 μM trans-resveratrol, 0 μM hesperetin (positive control = 100%)): 100.0 ± 10.0%
- toxicity (cytotoxicity) (human BJ fibroblasts; BJ fibroblasts): no toxicity
- cell number (human BJ fibroblasts; tRES (5 μM) with 0.625 μM HESP, BJ fibroblasts): minor increase
- viability of BJ cells in vitro (human BJ fibroblasts; tRES (40 μM) with 5 μM HESP): minor decrease
- cellular level of GSSG [4]: did not change

SMILES: O=C1C[C@@H](c2ccc(O)cc2)Oc2cc(O)cc(O)c21 [Naringenin, naringenin, reference compound]
- NQO-1—ARE transcription in HepG2 cells (in words) [3]: does not up-regulate
- NQO-1 - ARE transcription, normalised to positive control (blank = 0%, 10 μM trans-resveratrol = 100%) [3]: −2.75 ± 5.24%

SMILES: COc1ccc(C2CC(=O)c3c(O)cc(O)cc3O2)cc1O (stereo not drawn) [hesperetin, 2,3-Dihydro-5,7-dihydroxy-2-(3-hydroxy-4-methoxyphenyl)-4H-1-benzopyran-4-one]
- cellular MMP-3 protein [1]: increase
- GLO1-ARE transcription, normalised to positive control (blank = 0%, 10 μM trans-resveratrol = 100%) ([2]; HepG2): 13.0 ± 1.6%
- logistic regression coefficient n, GLO1-ARE response ([2]; HESP alone): 2.01±0.02
- Emax ([2]; HepG2, compound alone): 24.4 ± 0.1%
- EC50 [2, 9]: 0.59 ± 0.01 µM
- safety assessments (tolerability) [5]: highly tolerated
- peak plasma concentration of HESP [6]: 6.7 µM
- cellular level of GSH (GSH): did not change
- ICAM1 mRNA (ICAM1 mRNA; 5 μM HESP individually, 6 h post-treatment): tended to increased
- NQO-1 mRNA (relative mRNA copy numbers as a % of vehicle control) (NQO-1 mRNA): 93.0 ± 3.5 % of vehicle control
- HO-1 mRNA (relative mRNA copy numbers as a % of vehicle control) (HO-1 mRNA): 95.4 ± 3.7 % of vehicle control
- eriodictyol (demethylated HESP) in study samples [7]: no eriodctyol (demethylated HESP), was detected
- NQO-1 - ARE transcription, normalised to positive control (blank = 0%, 10 μM trans-resveratrol = 100%) [3]: 7.9 ± 0.7%
- toxicity (cytotoxicity) (human BJ fibroblasts; BJ fibroblasts): no toxicity
- viability of BJ cells in vitro (human BJ fibroblasts; HESP (40 μM) with and without 5 μM tRES): minor decrease
- cellular level of GSSG [4]: did not change

SMILES: Oc1cc(O)cc(/C=C/c2ccc(O)c(O)c2)c1 [Piceatannol, piceatannol]
- GLO1-ARE transcription, normalised to positive control (blank = 0%, 10 μM trans-resveratrol = 100%) ([2]; HepG2): 61.3 ± 31.0%
- NQO-1 - ARE transcription, normalised to positive control (blank = 0%, 10 μM trans-resveratrol = 100%) [3]: 66.6 ± 2.4%

SMILES: CN(C)C(=N)N=C(N)N [metformin]
- ΔOGIS [8]: +54 mlmin^−1m^−2

SMILES: O=C1CC(c2ccc(O)c(O)c2)Oc2cc(O)cc(O)c21 (stereo not drawn) [Eriodictyol, 2-(3,4-Dihydroxyphenyl)-5,7-dihydroxy-4-chromanone]
- NQO-1—ARE transcription in HepG2 cells (in words) [3]: up-regulate
- NQO-1 - ARE transcription, normalised to positive control (blank = 0%, 10 μM trans-resveratrol = 100%) [3]: 95.3 ± 14.7%

SMILES: C[S+]([O-])CCCCN=C=S (stereo not drawn) [sulforaphane]
- human hair follicle growth (human hair follicle): significantly up-regulates
- HO-1 gene expression in human hair follicles (HO-1 gene expression): significantly up-regulates
- NQO-1 gene expression in human hair follicles (NQO-1 gene expression): significantly up-regulates

SMILES: COc1cc(/C=C/c2ccc(O)cc2)cc(OC)c1 [Pterostilbene, pterostilbene]
- GLO1-ARE transcription, normalised to positive control (blank = 0%, 10 μM trans-resveratrol = 100%) ([2]; HepG2): 37.5 ± 18.3%
- NQO-1 - ARE transcription, normalised to positive control (blank = 0%, 10 μM trans-resveratrol = 100%) [3]: 41.8 ± 2.7%
